Calls of active or inactive are those of the source. The calls are words filed in the database; no cut-off is given here.
Legend:
SARS-CoV-2 [1] = assay: (§1) Antiviral activity against SARS CoV-2 Wuhan infected in African green monkey Vero E6 cells assessed as inhibition of viral replication pretreated for 15 mins followed by compound removal and induction of viral infection for 1 hr and subsequent removal of inoculum and further addition of media containing compound measured after 24 hrs by cell-based ELISA; assay type: functional, organism-based; settings: for IC50: Severe acute respiratory syndrome coronavirus 2, Wuhan, Vero C1008; for inhibition: Severe acute respiratory syndrome coronavirus 2, time 24.25 hrs
Vero C1008 = assay: Cytotoxicity against African green monkey Vero E6 cells assessed as cell viability at 5 uM incubated for 48 hrs by MTT assay; assay type: toxicity, cell-based; settings: chlorocebus sabaeus, vero c1008, 48 h, 5 µM
SARS-CoV-2 [2] = assay: as §1, with “virus inactivation at 1 uM” for “inhibition of viral replication”, “48” for “24”, “RT-qPCR analysis relative to control” for “cell-based ELISA”; assay type: functional
SARS-CoV-2 [3] = assay: as §1, with “virus inactivation at 5 uM” for “inhibition of viral replication”, “48” for “24”, “RT-qPCR analysis relative to control” for “cell-based ELISA”; assay type: functional, Severe acute respiratory syndrome coronavirus 2; settings: time 48.25 hrs
SARS-CoV-2 [4] = assay: as §1, with “48” for “24”, “RT-qPCR analysis” for “cell-based ELISA”; assay type: functional, organism-based; settings: Severe acute respiratory syndrome coronavirus 2, time 48.25 hrs
SARS-CoV-2 [5] = assay: as §1, with “virus inactivation at 10 uM” for “inhibition of viral replication”, “48” for “24”, “RT-qPCR analysis relative to control” for “cell-based ELISA”; assay type: functional; settings: Severe acute respiratory syndrome coronavirus 2, time 48.25 hrs
[6] = target: Voltage-gated inwardly rectifying potassium channel KCNH2 (Homo sapiens, UniProt Q12809); assay: Inhibition of hERG extracted from membrane (unknown origin) incubated for 4 hrs by fluorescence polarization assay; assay type: toxicity, cell membranes
[7] = Stability in human plasma assessed as half life at 2 uM measured up to 120 mins by LC-MS/MS analysis; assay type: ADME, cell-free
[8] = Stability in mouse plasma assessed as half life at 2 uM measured up to 120 mins by LC-MS/MS analysis; assay type: ADME, cell-free
[9] = Stability in human plasma assessed as compound remaining at 2 uM measured after 60 mins by LC-MS/MS analysis; assay type: ADME, cell-free; settings: read-out: Stability
[10] = Stability in mouse plasma assessed as compound remaining at 2 uM measured after 60 mins by LC-MS/MS analysis; assay type: ADME, cell-free; settings: read-out: Stability
[11] = Severe acute respiratory syndrome coronavirus 2, time 48.25 hrs

Voltage-gated inwardly rectifying potassium channel KCNH2, sequence (Q12809 whole entry): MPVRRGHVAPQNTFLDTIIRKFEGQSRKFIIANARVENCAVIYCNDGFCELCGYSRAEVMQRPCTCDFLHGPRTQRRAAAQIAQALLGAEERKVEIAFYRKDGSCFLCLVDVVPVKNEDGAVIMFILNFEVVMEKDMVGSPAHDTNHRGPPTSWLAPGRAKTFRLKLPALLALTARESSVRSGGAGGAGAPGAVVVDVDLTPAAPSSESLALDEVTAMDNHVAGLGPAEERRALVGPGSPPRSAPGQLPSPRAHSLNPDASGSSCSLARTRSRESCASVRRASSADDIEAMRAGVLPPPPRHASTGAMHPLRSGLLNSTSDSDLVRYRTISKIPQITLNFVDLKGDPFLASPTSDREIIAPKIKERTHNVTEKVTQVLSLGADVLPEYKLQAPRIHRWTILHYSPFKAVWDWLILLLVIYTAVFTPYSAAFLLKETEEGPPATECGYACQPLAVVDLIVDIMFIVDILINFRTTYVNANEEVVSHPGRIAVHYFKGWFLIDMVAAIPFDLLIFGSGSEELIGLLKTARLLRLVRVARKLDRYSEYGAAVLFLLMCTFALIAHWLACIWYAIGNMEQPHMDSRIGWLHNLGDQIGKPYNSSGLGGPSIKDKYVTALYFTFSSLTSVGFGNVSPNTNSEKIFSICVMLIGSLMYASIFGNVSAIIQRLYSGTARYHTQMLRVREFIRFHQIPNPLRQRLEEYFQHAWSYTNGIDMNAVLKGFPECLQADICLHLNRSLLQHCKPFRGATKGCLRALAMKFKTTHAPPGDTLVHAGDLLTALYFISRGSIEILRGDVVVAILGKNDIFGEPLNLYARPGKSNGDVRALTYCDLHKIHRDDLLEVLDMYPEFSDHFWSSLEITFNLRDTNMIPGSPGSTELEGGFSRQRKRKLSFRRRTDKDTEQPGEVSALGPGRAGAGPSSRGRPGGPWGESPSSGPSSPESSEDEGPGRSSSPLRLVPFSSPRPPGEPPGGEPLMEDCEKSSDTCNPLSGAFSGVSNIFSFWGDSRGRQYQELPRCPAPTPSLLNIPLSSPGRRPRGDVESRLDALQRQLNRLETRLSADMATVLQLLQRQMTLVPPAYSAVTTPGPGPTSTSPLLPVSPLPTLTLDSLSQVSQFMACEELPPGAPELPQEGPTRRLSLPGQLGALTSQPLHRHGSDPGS

Row | SMILES | IC50 (SARS-CoV-2 [1]) | Activity (Vero C1008) | inhibition (SARS-CoV-2 [4]) | Activity (SARS-CoV-2 [5]) | further results
1 | CCOC(=O)c1c(CSc2ccc(F)cc2C)n(Cc2ccc(C)cc2)c2cc(Br)c(O)cc12 | 10 µM | Non-toxic |  |  | Activity (SARS-CoV-2 [2]; [11]): Not active; No Significant Effect Observed; Activity (SARS-CoV-2 [3]): >50%
2 | CCOC(=O)c1c(CSc2ccccc2OC(F)(F)F)n(C)c2cc(Br)c(O)cc12 |  |  | Not active; No Significant Effect | Not active; No Significant Effect Observed | 
3 | CCOC(=O)c1c(CSc2ccc(F)cc2)n(Cc2ccc(F)cc2)c2cc(Br)c(O)cc12 |  | Non-toxic | Not active; No Significant Effect |  | Activity (SARS-CoV-2 [3]): >95%
4 | CCOC(=O)c1c(CSc2ccc(C)cc2C)n(Cc2ccc(-c3ccccc3)cc2)c2cc(Br)c(O)cc12 |  | Non-toxic | Not active; No Significant Effect | Not active; No Significant Effect Observed | 
5 | CCC(CC)COC(=O)[C@H](C)N[P@](=O)(OC[C@H]1O[C@@](C#N)(c2ccc3c(N)ncnn23)[C@H](O)[C@@H]1O)Oc1ccccc1 | 0.76 µM |  |  |  | 
6 | CCOC(=O)c1c(CSc2c(C)cc(C)cc2C)n(C)c2cc(Br)c(O)cc12 | 8.75 µM | Non-toxic |  | Not determined; No Significant Effect Observed | 
7 | CCOC(=O)c1c(CSc2ccc(F)cc2C)n(Cc2ccc(F)cc2)c2cc(Br)c(O)cc12 | 12.7 µM | Non-toxic | Not active; No Significant Effect |  | Activity (SARS-CoV-2 [2]; [11]): Not active; No Significant Effect Observed; Activity (SARS-CoV-2 [3]): >95%
8 | CN1CCC(NC(=O)c2c(CSc3ccc(F)cc3)n(C)c3cc(Br)c(O)cc23)CC1 | 3.8 µM | Non-toxic |  |  | 
9 | CCOC(=O)c1c(CSc2ccc(C)cc2C)n(C)c2cc(Br)c(O)c(CN(C)C)c12 | 1.5 µM | Non-toxic |  |  | Activity (SARS-CoV-2 [2]; time 48.25 hrs): >99%; Activity (SARS-CoV-2 [3]): >99%; IC50 [6]: 0.65 µM
10 | CCOC(=O)c1c(CSc2ccc(C)cc2C)n(Cc2ccc(Cl)cc2)c2cc(Br)c(O)cc12 |  |  | Not active; No Significant Effect | Not active; No Significant Effect Observed | 
11 | CCOC(=O)c1c(CSc2ccc(C)cc2C)n(Cc2ccc(C(C)(C)C)cc2)c2cc(Br)c(O)cc12 |  | Non-toxic | Not active; No Significant Effect | Not active; No Significant Effect Observed | 
12 | Cc1ccc(Cn2c(CSc3c(C)cc(C)cc3C)c(C(=O)NC3CCN(C)CC3)c3cc(O)c(Br)cc32)cc1 |  | Non-toxic |  |  | 
13 | Cn1c(CSc2ccc(F)cc2F)c(C(=O)NC(C)(C)C)c2cc(O)c(Br)cc21 | 4.6 µM | Non-toxic |  |  | 
14 | CCOC(=O)c1c(CSc2ccc(C)cc2C)n(Cc2ccc(C#N)cc2)c2cc(Br)c(O)cc12 |  | Non-toxic | Not active; No Significant Effect | Not active; No Significant Effect Observed | 
15 | CCOC(=O)c1c(CSc2ccc(F)cc2)n(Cc2cccc3ccccc23)c2cc(Br)c(O)cc12 |  | Non-toxic |  |  | inhibition (SARS-CoV-2 [1]): inactive; Activity (SARS-CoV-2 [2]; [11]): Not active; No Significant Effect Observed; Activity (SARS-CoV-2 [3]): >90%
16 | CCOC(=O)c1c(CSc2c(C)cc(C)cc2C)n(Cc2ccc(C)cc2)c2cc(Br)c(O)c(CN(C)C)c12 | 10 µM | Non-toxic |  | Not determined; No Significant Effect Observed | IC50 [6]: 3.85 µM
17 | CCOC(=O)c1c(CSc2ccccc2C(F)(F)F)n(C)c2cc(Br)c(O)cc12 |  |  | Not active; No Significant Effect | Not active; No Significant Effect Observed | 
18 | CC(C)[N+](C)(CCOC(=O)C1c2ccccc2Oc2ccccc21)C(C)C [PROPANTHELINE] |  |  |  |  | half-life at 2 µM [7]: 21.3 min; half-life at 2 µM [8]: 52.1 min; remaining at 1 h, 2 µM [9]: 2.04%; remaining at 1 h, 2 µM [10]: 17.4%
19 | CCOC(=O)c1c(CSc2ccccc2)n(Cc2cccc3ccccc23)c2cc(Br)c(O)cc12 |  |  |  | Not active; No Significant Effect Observed | inhibition (SARS-CoV-2 [1]): inactive
20 | CCOC(=O)c1c(CSc2ccc(C)cc2C)n(Cc2ccc(C)cc2)c2cc(Br)c(O)cc12 | 2.1 µM | Non-toxic |  |  | Activity (SARS-CoV-2 [3]): >99%; IC50 [6]: > 30 µM
21 | CCOC(=O)c1c(CSc2ccc(F)cc2F)n(C)c2cc(Br)c(O)cc12 |  |  | inactive | Not active; No Significant Effect Observed | inhibition (SARS-CoV-2 [1]): inactive
22 | CCOC(=O)c1c(CSc2ccccc2F)n(C)c2cc(Br)c(O)cc12 |  |  | Not active; No Significant Effect |  | inhibition (SARS-CoV-2 [1]): inactive; Activity (SARS-CoV-2 [2]; time 48.25 hrs): <90%
23 | CCOC(=O)c1c(CSc2ccccc2OC(F)(F)F)n(C)c2cc(Br)c(O)c(CN(C)C)c12 |  |  | Not active; No Significant Effect | Not active; No Significant Effect Observed | 

Reference: ChEMBL document CHEMBL6134895, “Strategic Design and Optimization of Umifenovir Analogues: Balancing Antiviral Efficacy and hERG Toxicity against SARS-CoV-2” (J Med Chem, 2025)
